Laboratory results taken from ChEMBL document CHEMBL1201862, “PubChem BioAssay data set” (2004).
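Method: 48-hour compound exposure of cells in 96-well plates, five concentrations, linear interpolation of endpoints. GI50 = concentration required for 50% inhibition of growth.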 The source made the active and inactive calls. No stated cut-off is given here; in the data, active = GI50 up to about 1.1 µM and inactive = higher.

How the values were obtained:
Test in all cases: NCI anticancer screen, dose series, 48 h
786-0 = tested on: 786-0
ACHN = tested on: ACHN
BT-549 = tested on: BT-549
DU-145 = tested on: DU-145
EKVX = tested on: EKVX
HCT-116 = tested on: HCT-116
HOP-92 = tested on: HOP-92
MDA-N = tested on: MDA-N
Malme-3M = tested on: Malme-3M
NCI/ADR-RES = tested on: NCI/ADR-RES
PC-3 = tested on: PC-3
RPMI-8226 = tested on: RPMI-8226
SF-295 = tested on: SF-295
SK-MEL-5 = tested on: SK-MEL-5
SW-620 = tested on: SW-620
TK-10 = tested on: TK-10
UACC-257 = tested on: UACC-257
RXF 393 = tested on: RXF 393
HCC 2998 = tested on: HCC 2998

Measured: GI50

CC1(C)/C(=N\NC(N)=O)C2CCC1C2 (stereo not given)
inactive: 786-0 > 100 µM | ACHN > 100 µM | BT-549 > 100 µM | DU-145 > 100 µM | EKVX > 100 µM | HCT-116 > 100 µM | HOP-92 > 100 µM | MDA-N > 100 µM | Malme-3M > 100 µM | NCI/ADR-RES > 100 µM | PC-3 > 100 µM | RPMI-8226 > 100 µM | SF-295 > 100 µM | SK-MEL-5 > 100 µM | SW-620 > 100 µM | TK-10 > 100 µM | UACC-257 > 100 µM

COc1cc(C2c3cc4c(cc3C(=O)C3CCC(=O)N32)OCO4)cc(OC)c1O (stereo not given)
inactive: 786-0 > 50 µM | ACHN > 50 µM | BT-549 > 50 µM | DU-145 > 50 µM | EKVX > 50 µM | HCT-116 > 50 µM | HOP-92 > 50 µM | MDA-N > 50 µM | NCI/ADR-RES > 50 µM | PC-3 > 50 µM | RPMI-8226 > 50 µM | RXF 393 > 50 µM | SF-295 > 50 µM | SW-620 > 50 µM | UACC-257 > 50 µM

CCNC(=S)NNC(=O)c1ccccc1Nc1ccccc1C(=O)NNC(=S)NCC
inactive: 786-0 > 100 µM | ACHN > 100 µM | BT-549 > 100 µM | DU-145 > 100 µM | EKVX > 100 µM | HCC 2998 > 100 µM | HCT-116 > 100 µM | HOP-92 > 100 µM | MDA-N > 100 µM | Malme-3M > 100 µM | NCI/ADR-RES > 100 µM | PC-3 > 100 µM | RPMI-8226 > 100 µM | SF-295 > 100 µM | SK-MEL-5 > 100 µM | SW-620 > 100 µM | TK-10 > 100 µM

CCOC(=O)c1cc(C)nc2c1c(=O)n(-c1ccccc1)c(=O)n2CCCCN1CCN(c2ccccc2)CC1
inactive: 786-0 73.1 µM | ACHN 58.1 µM | BT-549 > 100 µM | DU-145 > 100 µM | EKVX > 100 µM | HCC 2998 41.1 µM | HCT-116 > 100 µM | HOP-92 > 100 µM | Malme-3M > 100 µM | NCI/ADR-RES > 100 µM | PC-3 47.9 µM | RPMI-8226 15.7 µM | RXF 393 > 100 µM | SF-295 > 100 µM | SK-MEL-5 38.6 µM | SW-620 > 100 µM | TK-10 > 100 µM | UACC-257 27.8 µM

O=C1CSc2nnc(CCCCCCCCc3nnc4n3NC(=O)CS4)n2N1
inactive: 786-0 32.6 µM | ACHN > 100 µM | BT-549 56.8 µM | DU-145 > 100 µM | EKVX > 100 µM | HCC 2998 > 100 µM | HCT-116 91.2 µM | HOP-92 82 µM | MDA-N > 100 µM | Malme-3M 31.9 µM | NCI/ADR-RES > 100 µM | PC-3 > 100 µM | RPMI-8226 28.6 µM | SF-295 85.1 µM | SW-620 73.6 µM | UACC-257 42.6 µM

Cc1ccc2c(=O)[nH]sc2c1
inactive: 786-0 3.72 µM | ACHN 9.29 µM | BT-549 15.4 µM | DU-145 88.1 µM | EKVX 14.9 µM | HCC 2998 21.2 µM | HCT-116 31.9 µM | MDA-N 14 µM | Malme-3M 20.4 µM | NCI/ADR-RES 21.6 µM | PC-3 15.7 µM | RPMI-8226 5.31 µM | RXF 393 15.3 µM | SF-295 54.5 µM | SK-MEL-5 12.9 µM | SW-620 12.6 µM | TK-10 18.4 µM | UACC-257 18.4 µM

CCCCOC(=O)C(O)Cc1ccoc1 (stereo not given)
inactive: 786-0 > 100 µM | ACHN > 100 µM | BT-549 > 100 µM | DU-145 > 100 µM | EKVX > 100 µM | HCC 2998 > 100 µM | HCT-116 > 100 µM | MDA-N > 100 µM | Malme-3M > 100 µM | NCI/ADR-RES > 100 µM | PC-3 > 100 µM | RPMI-8226 > 100 µM | RXF 393 > 100 µM | SF-295 > 100 µM | SK-MEL-5 > 100 µM | SW-620 > 100 µM | TK-10 > 100 µM

C[C@]12CC[C@@H]3c4cc(I)c(O)cc4CC[C@H]3[C@@H]1CC[C@@H]2O
inactive: 786-0 5.06 µM | ACHN 8.75 µM | BT-549 11.6 µM | EKVX 2.65 µM | HCC 2998 8.81 µM | HOP-92 10.3 µM | MDA-N 1.74 µM | Malme-3M 9.89 µM | NCI/ADR-RES 6.55 µM | PC-3 10.7 µM | RPMI-8226 7.74 µM | RXF 393 6.07 µM | SF-295 3.48 µM | SK-MEL-5 3.18 µM | SW-620 3.58 µM | TK-10 9.68 µM | UACC-257 8.61 µM
